± gives the expanded uncertainty stated by the source.
Conditions: Liquid, Drop volume

CCCCCCCCCCCCCCCC [hexadecane] + O=C=O
interfacial tension [mN/m]
Conditions | 313.15 K | 333.15 K | 353.15 K | 373.15 K | 393.15 K
340 kPa | 22.39 ± 0.27 | 20.59 ± 0.23 | 19.15 ± 0.19 | 17.84 ± 0.18 | 16.46 ± 0.15
690 kPa | 21.67 ± 0.27 | 20.1 ± 0.23 | 18.65 ± 0.19 | 17.27 ± 0.17 | 16.12 ± 0.14
1030 kPa | 20.89 ± 0.26 | 19.32 ± 0.23 | 18.15 ± 0.19 | 16.85 ± 0.17 | 15.79 ± 0.14
1380 kPa | 20.29 ± 0.26 | 18.89 ± 0.22 | 17.69 ± 0.19 | 16.47 ± 0.17 | 15.54 ± 0.14
1720 kPa | 19.42 ± 0.26 | 18.21 ± 0.22 | 17.21 ± 0.19 | 15.99 ± 0.17 | 15.11 ± 0.14
2070 kPa | 18.39 ± 0.26 | 17.8 ± 0.22 | 16.74 ± 0.19 | 15.67 ± 0.17 | 14.81 ± 0.14
2410 kPa | 17.81 ± 0.25 | 17.01 ± 0.22 | 16.21 ± 0.18 | 15.29 ± 0.17 | 14.49 ± 0.14
2760 kPa | 17.21 ± 0.25 | 16.38 ± 0.22 | 15.71 ± 0.18 | 14.94 ± 0.17 | 14.18 ± 0.14
3100 kPa | 16.29 ± 0.25 | 15.94 ± 0.22 | 15.31 ± 0.18 | 14.48 ± 0.16 | 13.77 ± 0.13
3450 kPa | 15.49 ± 0.25 | 15.36 ± 0.21 | 14.82 ± 0.18 | 14.21 ± 0.16 | 13.52 ± 0.13
3800 kPa | 14.85 ± 0.25 | 14.8 ± 0.21 | 14.37 ± 0.18 | 13.89 ± 0.16 | 13.2 ± 0.13
4140 kPa | 13.94 ± 0.25 | 14.23 ± 0.21 | 13.88 ± 0.18 | 13.49 ± 0.16 | 12.84 ± 0.13
4480 kPa | 13.36 ± 0.24 | 13.77 ± 0.21 | 13.31 ± 0.18 | 13 ± 0.16 | 12.59 ± 0.13
4830 kPa | 12.38 ± 0.24 | 12.89 ± 0.21 | 12.89 ± 0.17 | 12.58 ± 0.16 | 12.3 ± 0.13
5170 kPa | 11.9 ± 0.24 | 12.49 ± 0.21 | 12.44 ± 0.17 | 12.15 ± 0.16 | 12.06 ± 0.13
5510 kPa | 11.18 ± 0.24 | 11.68 ± 0.21 | 11.81 ± 0.17 | 11.89 ± 0.16 | 11.63 ± 0.13
5860 kPa | 10.46 ± 0.24 | 11.11 ± 0.2 | 11.48 ± 0.17 | 11.47 ± 0.15 | 11.41 ± 0.13
6200 kPa | 9.57 ± 0.24 | 10.36 ± 0.2 | 11.15 ± 0.17 | 11.11 ± 0.15 | 11.18 ± 0.12
6550 kPa | 8.63 ± 0.24 | 9.68 ± 0.2 | 10.74 ± 0.17 | 10.79 ± 0.15 | 10.81 ± 0.12
6890 kPa | 7.78 ± 0.23 | 9.16 ± 0.2 | 10.05 ± 0.17 | 10.28 ± 0.15 | 10.56 ± 0.12
7240 kPa | 7.22 ± 0.23 | 8.82 ± 0.2 | 9.74 ± 0.17 | 9.9 ± 0.15 | 10.19 ± 0.12
7580 kPa | 6.26 ± 0.23 | 8.16 ± 0.2 | 9.44 ± 0.17 | 9.57 ± 0.15 | 9.82 ± 0.12
7930 kPa | 5.48 ± 0.23 | 7.52 ± 0.2 | 8.98 ± 0.16 | 9.35 ± 0.15 | 9.52 ± 0.12
8270 kPa | 4.79 ± 0.23 | 6.86 ± 0.2 | 8.35 ± 0.16 | 8.84 ± 0.15 | 9.23 ± 0.12
8620 kPa | 4.24 ± 0.23 | 6.32 ± 0.19 | 7.67 ± 0.16 | 8.27 ± 0.15 | 8.84 ± 0.12
8960 kPa | 3.49 ± 0.23 | 5.81 ± 0.19 | 7.42 ± 0.16 | 7.87 ± 0.14 | 8.58 ± 0.12
9310 kPa | 2.7 ± 0.23 | 5.19 ± 0.19 | 6.95 ± 0.16 | 7.65 ± 0.14 | 8.16 ± 0.11
9650 kPa | – | 4.57 ± 0.19 | 6.06 ± 0.16 | 7.15 ± 0.14 | 7.92 ± 0.11
10000 kPa | – | 4 ± 0.19 | 5.78 ± 0.16 | 6.74 ± 0.14 | 7.61 ± 0.11
10340 kPa | – | 3.45 ± 0.19 | 5.11 ± 0.16 | 6.41 ± 0.14 | 7.27 ± 0.11
10690 kPa | – | 2.94 ± 0.19 | 4.84 ± 0.16 | 6.16 ± 0.14 | 6.99 ± 0.11
11030 kPa | – | 2.38 ± 0.19 | 4.48 ± 0.15 | 5.64 ± 0.14 | 6.75 ± 0.11
11380 kPa | – | – | 4.04 ± 0.15 | 5.28 ± 0.14 | 6.42 ± 0.11
